pKi: −log10 of the molar value. Counter-ions that a name gives are not always drawn. Each block holds one compound with its values, some of them ahead of it.
What was measured:
binding of substance P = experiment: antagonism of the binding of substance P on rat cortical membranes and IM9 lymphoblasts; settings: rat cortical membranes and/or IM9 lymphoblasts (not said which); read-out: Ki, antagonizes the binding of substance P
binding of eledoisin = molecular target: T1, binding of eledoisin (Rattus norvegicus, UniProt P16177); experiment: antagonism of the binding of eledoisin on rat membranes; settings: read-out: Ki, antagonizes the binding of eledoisin
T1 construct: tests performed on rat membranes; from tissue
T1 sequence (P16177 1-452): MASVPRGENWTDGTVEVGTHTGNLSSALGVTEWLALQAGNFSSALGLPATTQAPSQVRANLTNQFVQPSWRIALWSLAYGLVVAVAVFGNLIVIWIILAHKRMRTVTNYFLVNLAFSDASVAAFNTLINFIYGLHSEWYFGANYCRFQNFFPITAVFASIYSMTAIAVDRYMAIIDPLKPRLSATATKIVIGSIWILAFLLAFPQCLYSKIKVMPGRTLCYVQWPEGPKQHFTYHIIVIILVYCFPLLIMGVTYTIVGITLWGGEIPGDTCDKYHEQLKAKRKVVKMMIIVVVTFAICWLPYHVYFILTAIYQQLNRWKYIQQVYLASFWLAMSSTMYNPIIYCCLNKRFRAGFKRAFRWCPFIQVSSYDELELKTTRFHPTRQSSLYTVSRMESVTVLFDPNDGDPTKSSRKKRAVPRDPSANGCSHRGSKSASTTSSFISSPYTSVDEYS
Description: Foster et al., Br. J. Pharmacol., 1988, 94, 602-608.
Eledoisin is a peptide of batrachian origin which is equivalent to neurokinin B.

[1] = molecular target: T2, binding of neurokinin A (NKA) (Rattus norvegicus, UniProt P16610); experiment: antagonism of the binding of NKA on rat duodenal membranes; settings: read-out: Ki, antagonizes the binding of neurokinin A
T2 construct: tests performed on rat duodenal membranes; from tissue; host or cells: rat duodenal membranes
T2 sequence (P16610 1-390): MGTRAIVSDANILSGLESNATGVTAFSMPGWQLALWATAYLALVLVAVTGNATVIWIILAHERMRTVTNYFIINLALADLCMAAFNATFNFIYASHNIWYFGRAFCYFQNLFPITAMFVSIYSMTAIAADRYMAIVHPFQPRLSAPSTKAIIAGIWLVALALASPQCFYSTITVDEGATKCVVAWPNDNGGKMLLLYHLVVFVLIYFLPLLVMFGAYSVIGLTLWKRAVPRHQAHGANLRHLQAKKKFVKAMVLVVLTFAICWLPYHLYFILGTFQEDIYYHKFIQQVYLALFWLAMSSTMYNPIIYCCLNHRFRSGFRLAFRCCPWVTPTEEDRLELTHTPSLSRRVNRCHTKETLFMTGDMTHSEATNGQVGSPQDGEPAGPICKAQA

NK1 receptor = settings: D. Regoli, 1988 and 1989; cited from earlier work

pKi (binding of substance P): 8.08
Compound: O=C(Cc1ccccc1)N1CCCC(CCN2CCC(Cc3ccccc3)CC2)(c2ccc(Cl)c(Cl)c2)C1 (stereo not shown) [Compound 2, 3-[2-(4-Benzylpiperidin-1-yl)ethyl]-3-(3,4-dichlorophenyl)-1-phenylacetylpiperidine hydrochloride]

Compound: O=C1CCC(CCN2CCC(O)(c3ccccc3)CC2)(c2ccc(Cl)c(Cl)c2)CN1Cc1ccccc1 (stereo not shown) [Compound 3]
pKi (binding of eledoisin): 6.70

Compound: O=C(c1ccccc1)N1CCC(CCN2CCC(O)(c3ccccc3)CC2)(c2ccc(Cl)c(Cl)c2)C1 (stereo not shown) [Compound 7]
pKi [1]: 8.89

Compound: [Sar^9,Met-(O2)^11 ]SP
selectivity for the NK1 receptor (NK1 receptor): thought to have a selectivity for the NK1

Source: patent publication US5340822A, “Polycyclic amine compounds and their enantiomers, their method of preparation and pharmaceutical compositions in which they are present” (Elf Sanofi, priority 1991, dated 1994)
